Results taken from patent publication US7713690B1, “Luminous bacteria and methods for the isolation, identification and quantitation of toxicants” (priority 1991, dated 2010).

Columns and labels:
Vibrio fischeri [1] = assay: Metals spotted on chromatography paper sheet, dried, exposed to luminescent bacteria; format: cell-based; conditions: no chromatography separation
Source text: Upon spotting of the various metals along one side of a chromatography paper sheet, the sample spots were allowed to dry. Upon drying, the spotted sheets were exposed to the luminescent bacteria Vibrio fischeri.

Vibrio fischeri [2] = assay: Inhibition of luminescence of luminescent bacteria (general statements); format: cell-based

Compound	visualization of heavy metal salts by luminescent bacteria (Vibrio fischeri [1])	inhibition of luminescence of Vibrio fischeri (Vibrio fischeri [2])
[Cd] [cadmium]	able to visualize the presence	
[Ca+2] [calcium ion]		Neither does the luminescence of the Vibrio fischeri appear to be immediately inhibited
lead	able to visualize the presence	
mercury	able to visualize the presence	
